Columns and labels:
Test in all cases: CTG-3D luminescence at 96 h relative to day-0 seeding control (ratio to day 0); higher = more growth / less cytotoxicity; PDxO 3D drug screen (set 2), 96 h, CTG-3D normalised to day-0 seeding control.
HCI-002 = tested on: HCI-002 (organoid from a triple-negative breast cancer xenograft)
HCI-003.E2 = tested on: HCI-003.E2 (organoid from an ER-positive breast cancer xenograft)
HCI-005.E2 = tested on: HCI-005.E2 (organoid from a breast cancer xenograft with a HER2-positive history)
HCI-011.E2 = tested on: HCI-011.E2 (organoid from an ER-positive breast cancer xenograft)
HCI-016 = tested on: HCI-016 (organoid from a triple-negative breast cancer xenograft)
HCI-024 = tested on: HCI-024 (organoid from a breast cancer xenograft)

COc1cccc2c1C(=O)c1c(O)c3c(c(O)c1C2=O)C[C@@](O)(C(=O)CO)C[C@@H]3O[C@H]1C[C@H](N)[C@@H](O)[C@H](C)O1 [epirubicin]
CTG-3D luminescence at 96 h
Details | 12.5 pM | 0.00025 µM | 0.005 µM | 0.1 µM | 1 µM | 10 µM | 100 µM | 625 fM
HCI-002, days in culture: 127 | 2.39 | 2.93 | 2.65 | 2.23 | 0.362 | 0.034 | -0.0164 | 3.16
HCI-002, days in culture: 155 | 5.42 | 5.17 | 4.75 | 2.9 | 0.251 | 0.0733 | -0.011 | 4.45
HCI-002, days in culture: 168 | 3.2 | 3.41 | 3.79 | 1.24 | 0.0925 | 0.0935 | -0.00758 | 3.54
HCI-011.E2, days in culture: 74 | 2.38 | 2.27 | 2.26 | 2.8 | 0.677 | 0.0499 | -0.0143 | 2.23
HCI-016, days in culture: 305 | 2.91 | 3.05 | 3.17 | 1.79 | 0.0989 | 0.0325 | -0.0142 | 3.33
HCI-016, days in culture: 327 | 0.93 | 0.767 | 0.985 | 1.49 | 0.0556 | 0.0566 | -0.00792 | 1.16
HCI-016, days in culture: 341 | 2.05 | 1.72 | 2.11 | 0.986 | 0.0279 | 0.103 | -0.00358 | 2.49
HCI-016, days in culture: 397 | 2 | 1.81 | 1.7 | 0.704 | 0.0199 | 0.108 | -0.000737 | 3
HCI-024, days in culture: 202 | 1.44 | 1.41 | 0.402 | 0.943 | 0.189 | 0.201 | 0.0124 | 0.718
HCI-024, days in culture: 231 | 1.26 | 1.41 | 1.2 | 0.91 | 0.331 | 0.141 | 0.0266 | 1.79
HCI-024, days in culture: 254 | 1.76 | 2 | 0.967 | 0.838 | 0.196 | 0.165 | 0.0227 | 1.93

CTG-3D luminescence at 96 h
Details | 12.5 pM | 0.00025 µM | 0.005 µM | 0.1 µM | 1 µM | 10 µM | 100 µM | 625 fM
HCI-003.E2 | 2.55 | 2.48 | 2.34 | 2.23 | 0.712 | 0.0173 | 0.000274 | 3.06
HCI-005.E2 | 1.54 | 1.65 | 1.41 | 0.977 | 0.0317 | 0.00772 | -0.000128 | 1.98
HCI-011.E2 | 1.49 | 1.68 | 1.53 | 1.6 | 0.861 | 0.0857 | -0.000843 | 1.72

CO[C@H]1C[C@@H]2CC[C@@H](C)[C@@](O)(O2)C(=O)C(=O)N2CCCC[C@H]2C(=O)O[C@H]([C@H](C)C[C@@H]2CC[C@@H](OCCO)[C@H](OC)C2)CC(=O)[C@H](C)/C=C(\C)[C@@H](O)[C@@H](OC)C(=O)[C@H](C)C[C@H](C)/C=C/C=C/C=C/1C [everolimus]
CTG-3D luminescence at 96 h
Details | 12.5 pM | 0.00025 µM | 0.005 µM | 0.1 µM | 1 µM | 10 µM | 100 µM | 625 fM
HCI-002, days in culture: 127 | 1.87 | 2.27 | 2.16 | 2.43 | 2.17 | 2.2 | -0.00603 | 2.25
HCI-002, days in culture: 155 | 3.94 | 3.58 | 4.06 | 4.09 | 2.96 | 2.78 | -0.00382 | 3.53
HCI-002, days in culture: 168 | 3.61 | 3.15 | 3.32 | 2.37 | 2.67 | 2.73 | -0.000729 | 3.88
HCI-011.E2, days in culture: 74 | 2.42 | 2.16 | 1.14 | 0.719 | 0.223 | 0.141 | -0.0134 | 2.48
HCI-016, days in culture: 305 | 1.91 | 2.37 | 1.91 | 2.63 | 1.49 | 1.46 | -0.0112 | 3.94
HCI-016, days in culture: 327 | 0.724 | 1 | 1.4 | 1.68 | 0.673 | 1.5 | -0.00208 | 0.809
HCI-016, days in culture: 341 | 1.86 | 1.39 | 1.69 | 1.34 | 1.18 | 1.47 | -0.00301 | 2.31
HCI-016, days in culture: 397 | 2.02 | 1.53 | 1.5 | 1.31 | 0.567 | 0.757 | -0.000194 | 2.23
HCI-024, days in culture: 202 | 0.906 | 1.18 | 0.737 | 1.7 | 1.12 | 1.74 | 0.00395 | 1.12
HCI-024, days in culture: 231 | 0.783 | 1.17 | 0.961 | 1.01 | 0.971 | 1.11 | 0.000185 | 0.943
HCI-024, days in culture: 254 | 2.18 | 0.836 | 1.02 | 1.31 | 1.11 | 1.02 | 0.00153 | 2.4

CTG-3D luminescence at 96 h
Details | 12.5 pM | 0.00025 µM | 0.005 µM | 0.1 µM | 1 µM | 10 µM | 100 µM | 625 fM
HCI-003.E2 | 1.22 | 1.04 | 0.796 | 0.297 | 0.0538 | 0.03 | 0.000105 | 1.67
HCI-005.E2 | 1.05 | 1.43 | 1.45 | 1.18 | 0.769 | 0.653 | -0.000603 | 1.6
HCI-011.E2 | 0.746 | 0.907 | 0.684 | 0.675 | 0.247 | 0.327 | -4.7e-05 | 1.14

— the supplement of paper PMC8882468
